{"source": "patent US8034797B2", "about": "“Triazene compounds for the treatment of cancer” (Trin Therapeutics GmbH, priority 2007, dated 2011)", "key": {"Solubility in DMSO": {"experiment": "Solubility in DMSO", "type": "physicochemical", "conditions": "organic solvent or mixture, room temperature"}, "MEXF 462": {"test_system": "MEXF 462", "experiment": "MEXF 462 melanoma xenograft model", "type": "in vivo, nude mice", "conditions": "for outcome of treatment: equimolar doses ip twice weekly over 4 weeks", "procedure": "Breast tumours (MAXF 401) were implanted subcutaneously into the rear members of the mice aged 10 weeks. The increase in the volume of the individual tumours was measured using microcallipers, and the size of the tumour was calculated according to the formula a*b^2/2 (where a is the largest diameter of the tumour and b is the vertical axis). When the tumour volume had increased to 80-120 mm^3, the animals were allocated at random into test groups of in each case 6 animals. […]\nThe anti-tumour activity of the compounds was determined in the MEXF 462 xenograft tumour model in the nude mouse. Subcutaneous implantation of the tumour and the determination of tumour volumes were carried out as described hereinbefore. Groups of in each case 8 animals were used.\nEquimolar amounts of the compound of Example 8 were administered ip twice weekly in the form of a 5% DMSO solution over the mentioned period.\nThe progression over time of the anti-tumour action, expressed in % of the tumour volume at the beginning of the test, over the period of therapy is shown in Table 3."}, "MAXF 401": {"test_system": "MAXF 401", "experiment": "MAXF 401 breast tumour xenograft in nude mice", "type": "in vivo", "conditions": "for Mortality: deaths/animals", "procedure": "All the tests were carried out using female nude mice under standard conditions for the keeping of animals with controlled illumination and temperature. The animals were given water and food as desired.\nThe increase in the volume of the individual tumours was measured using microcallipers, and the size of the tumour was calculated according to the formula a*b^2/2 (where a is the largest diameter of the tumour and b is the vertical axis). When the tumour volume had increased to 80-120 mm^3, the animals were allocated at random into test groups of in each case 6 animals.\nThe test compounds (in the form of sodium salts) were dissolved in a saline solution, and 5% Klucel (hydroxypropylcellulose) was added in order to dissolve all the test compounds in the same carrier. […] A volume of 10 ml/kg body weight was injected. Animals that received only the carrier served as control. The test compounds were treated according to the scheme of twice weekly administration over a period of […]. The tumour volume and the body weight were checked twice weekly, and the relative tumour volumes were calculated as the ratio of tumour size to body weight.\nOn the basis of the relative tumour volumes of the animals treated with the test compounds compared with the tumour volumes of the controls treated only with the carrier, the T/C values were calculated and were used as the index of anti-tumour activity.\nSubcutaneous implantation of the tumour and the determination of the tumour volume were carried out as described hereinbefore. The above-mentioned salts of the test substance were administered by ip injection twice weekly in the mentioned doses in the form of an aqueous solution, over a period of 4 weeks. […]\nSubcutaneous implantation of the tumour and the determination of tumour volumes were carried out as described hereinbefore. The test substance was administered by ip injection twice weekly in the mentioned doses in the form of the sodium salt as an aqueous solution, over a period of 4 weeks."}, "Solubility in water": {"experiment": "Solubility in water", "type": "physicochemical", "conditions": "for solubility: water"}, "Tumour-carrying mice": {"test_system": "Tumour-carrying mice", "experiment": "Nephrological tolerability (kidney post-mortem and histology)", "type": "in vivo", "procedure": "A control group was treated only with the carrier according to a twice weekly treatment scheme.\nWhen the 28-day treatment period had ended, a post-mortem was carried out on the mice. […] The kidneys of all the animals in the test groups were removed by operation, fixed in formalin according to standard methods, embedded in paraffin and processed for HE staining."}, "[1]": {"conditions": "sodium salts ip, equimolar to 350 mg/kg of comparison compound, twice weekly over 5 weeks, 100% = no activity"}, "[2]": {"conditions": "sodium salts ip, equimolar to 350 mg/kg of comparison compound, twice weekly over 5 weeks"}, "[3]": {"conditions": "kidney histology after 28-day twice weekly ip treatment, equimolar to 450 mg of stock composition, affected/animals"}, "[4]": {"conditions": "room temperature, read-out: solubility in water at room temperature"}}, "note": "Where a name gives a salt, the structure may show the parent alone.", "data": [{"compound": "CN(C)/N=N/c1ccc(C(=O)c2ccc(OCCC(=O)NCC(N)=O)cc2)cc1", "note": "[Example 8]", "values": [{"measurement": "solubility", "setting": "Solubility in DMSO", "value": 833, "unit": "mg/mL"}, {"measurement": "tumour volume in % of the tumour volume at the beginning of the test, Mean", "setting": "MEXF 462; day 0, 285 mg/kg ip twice weekly, 5% DMSO solution", "value": 100, "unit": "%"}, {"measurement": "tumour volume in % of the tumour volume at the beginning of the test, Mean", "setting": "MEXF 462; day 3, 285 mg/kg ip twice weekly, 5% DMSO solution", "value": 293, "unit": "%"}, {"measurement": "tumour volume in % of the tumour volume at the beginning of the test, Mean", "setting": "MEXF 462; day 7, 285 mg/kg ip twice weekly, 5% DMSO solution", "value": 369, "unit": "%"}, {"measurement": "tumour volume in % of the tumour volume at the beginning of the test, Mean", "setting": "MEXF 462; day 11, 285 mg/kg ip twice weekly, 5% DMSO solution", "value": 174, "unit": "%"}, {"measurement": "tumour volume in % of the tumour volume at the beginning of the test, Mean", "setting": "MEXF 462; day 14, 285 mg/kg ip twice weekly, 5% DMSO solution", "value": 134, "unit": "%"}, {"measurement": "tumour volume in % of the tumour volume at the beginning of the test, Mean", "setting": "MEXF 462; day 18, 285 mg/kg ip twice weekly, 5% DMSO solution", "value": 107, "unit": "%"}, {"measurement": "tumour volume in % of the tumour volume at the beginning of the test, Mean", "setting": "MEXF 462; day 21, 285 mg/kg ip twice weekly, 5% DMSO solution", "value": 151, "unit": "%"}, {"measurement": "tumour volume in % of the tumour volume at the beginning of the test, Mean", "setting": "MEXF 462; day 25, 285 mg/kg ip twice weekly, 5% DMSO solution", "value": 172, "unit": "%"}, {"measurement": "tumour volume in % of the tumour volume at the beginning of the test, Mean", "setting": "MEXF 462; day 28, 285 mg/kg ip twice weekly, 5% DMSO solution", "value": 271, "unit": "%"}, {"measurement": "outcome of treatment", "setting": "MEXF 462", "value": "pronounced slowing down of tumour growth"}]}, {"compound": "CN(C)/N=N/c1ccc(C(=O)c2ccc(OCC(=O)NCC(=O)O)cc2)cc1", "note": "[Example 4a]", "values": [{"measurement": "T/C value", "setting": "MAXF 401; 400 mg/kg sodium salt ip twice weekly, after 4 weeks' therapy", "value": 12}, {"measurement": "remission", "setting": "MAXF 401; 500 mg/kg sodium salt ip twice weekly, within 3 weeks of treatment", "value": "complete remission"}, {"measurement": "salting-out effect in 0.9% NaCl", "setting": "Solubility in water; 0.9% NaCl", "value": "pronounced salting-out effect"}, {"measurement": "solubility in water at 25° C.", "setting": "Solubility in water; 25° C.", "value": "about 4 g/litre"}, {"measurement": "solubility in water at 25° C.", "setting": "Solubility in water; 25° C.; listed as Example 4a)", "value": 4, "unit": "mg/mL"}]}, {"compound": "CN(C)/N=N/c1ccc(C(=O)c2ccc(OCCC(=O)NCC(=O)O)cc2)cc1", "note": "[Example 2, {3-[4(4-[(1E)-3,3-dimethyl-1-triazenyl]-benzoyl)-phenoxyl]propionylamino} acetic acid]", "values": [{"measurement": "T/C value", "setting": "MAXF 401; [1]", "value": 3.4, "unit": "%"}, {"measurement": "Mortality", "setting": "MAXF 401; [2]", "value": "0/6"}]}, {"compound": "COC(=O)CNC(=O)CCOc1ccc(C(=O)c2ccc(/N=N/N(C)C)cc2)cc1", "note": "[Example 1]", "values": [{"measurement": "melting point", "value": "104 to 105", "unit": "°C"}]}, {"compound": "CN(C)N=Nc1ccc(C(=O)c2ccc(OCC(=O)[O-])cc2)cc1.[Na+]", "note": "[Ex. 30 of DE 1793115A]", "values": [{"measurement": "reduction in the tumour volume development", "setting": "MAXF 401; 350 mg/kg ip", "value": 50, "unit": "%"}, {"measurement": "T/C value", "setting": "MAXF 401; [1]", "value": 48.5, "unit": "%"}, {"measurement": "Mortality", "setting": "MAXF 401; [2]", "value": "2/6"}, {"measurement": "macroscopic findings of the kidneys at post-mortem", "setting": "Tumour-carrying mice; after 28-day treatment period", "value": "macroscopic changes (swelling, local discolouration) of the kidneys"}, {"measurement": "renal histology finding", "setting": "Tumour-carrying mice; after 28-day treatment period", "value": "Marked focal tubular necrosis of the kidneys"}, {"measurement": "Acute single-cell necrosis", "setting": "Tumour-carrying mice; [3]", "value": "4/9"}, {"measurement": "Focal tubular necrosis", "setting": "Tumour-carrying mice; [3]", "value": "3/9"}]}, {"compound": "CN(C)/N=N/c1ccc(C(=O)c2ccc(OCC(=O)NCC(=O)O)cc2)cc1", "note": "[TRIS salt]", "values": [{"measurement": "remission", "setting": "MAXF 401; TRIS salt ip twice weekly, equimolar doses of 360, 400 and 500 mg/kg of the sodium salt, all doses", "value": "complete remission"}, {"measurement": "solubility in water at 25° C.", "setting": "Solubility in water; 25° C.", "value": "about 250 g/litre"}, {"measurement": "solubility", "setting": "Solubility in water; [4]", "value": 250, "unit": "mg/mL"}]}, {"compound": "CN(C)/N=N/c1ccc(C(=O)c2ccc(OCC(=O)NCC(=O)O)cc2)cc1", "note": "[Example 4, {2-[4-(4-[(1E)-3,3-dimethyl-1-triazenyl]-benzoyl)-phenoxy]-acetylamino}acetic acid]", "values": [{"measurement": "T/C value", "setting": "MAXF 401; [1]", "value": 12.6, "unit": "%"}, {"measurement": "Mortality", "setting": "MAXF 401; [2]", "value": "0/6"}]}, {"compound": "CN(C)N=Nc1ccc(C(=O)c2ccc(OCC(=O)[O-])cc2)cc1.[Na+]", "note": "[Preparation 1]", "values": [{"measurement": "solubility", "setting": "Solubility in water; recrystallisation from water, read-out: Solubility (converted)", "value": 40, "unit": "mg/mL"}]}, {"compound": "CN(C)/N=N/c1ccc(C(=O)c2ccc(OCCC(=O)NCCS(=O)(=O)[O-])cc2)cc1.[Na+]", "note": "[Example 9]", "values": [{"measurement": "solubility", "setting": "Solubility in water; [4]", "value": 666, "unit": "mg/mL"}]}, {"compound": "CN(C)/N=N/c1ccc(C(=O)c2ccc(OCCC(=O)NC(CCC(N)=O)C(=O)O)cc2)cc1", "note": "(centres unmarked) [Example 7, 4-carbamoyl-2-{3-[4-(4-[(1E)-3,3-dimethyl-1-triazenyl]-benzoyl)-phenoxy]-propionylamino}-butanoic acid sodium salt]", "values": [{"measurement": "tumour volume in % of the tumour volume at the beginning of the test, Mean", "setting": "MEXF 462; day 0, 350 mg/kg ip twice weekly", "value": 100, "unit": "%"}, {"measurement": "tumour volume in % of the tumour volume at the beginning of the test, Mean", "setting": "MEXF 462; day 3, 350 mg/kg ip twice weekly", "value": 278, "unit": "%"}, {"measurement": "tumour volume in % of the tumour volume at the beginning of the test, Mean", "setting": "MEXF 462; day 7, 350 mg/kg ip twice weekly", "value": 172, "unit": "%"}, {"measurement": "tumour volume in % of the tumour volume at the beginning of the test, Mean", "setting": "MEXF 462; day 11, 350 mg/kg ip twice weekly", "value": 73, "unit": "%"}, {"measurement": "tumour volume in % of the tumour volume at the beginning of the test, Mean", "setting": "MEXF 462; day 14, 350 mg/kg ip twice weekly", "value": 49, "unit": "%"}, {"measurement": "tumour volume in % of the tumour volume at the beginning of the test, Mean", "setting": "MEXF 462; day 18, 350 mg/kg ip twice weekly", "value": 24, "unit": "%"}, {"measurement": "tumour volume in % of the tumour volume at the beginning of the test, Mean", "setting": "MEXF 462; day 21, 350 mg/kg ip twice weekly", "value": 6, "unit": "%"}, {"measurement": "tumour volume in % of the tumour volume at the beginning of the test, Mean", "setting": "MEXF 462; day 25, 350 mg/kg ip twice weekly", "value": 2, "unit": "%"}, {"measurement": "tumour volume in % of the tumour volume at the beginning of the test, Mean", "setting": "MEXF 462; day 28, 350 mg/kg ip twice weekly", "value": 0.3, "unit": "%"}, {"measurement": "outcome of treatment", "setting": "MEXF 462", "value": "complete remission"}, {"measurement": "solubility", "setting": "Solubility in water; 25 °C, 25° C., read-out: solubility in water at 25° C.", "value": "~400", "unit": "mg/mL"}]}]}
